# pIC50: −log10 of the molar value. The source made the active and inactive calls. The calls are words filed in the database; no cut-off is given here.
# Experiments:
# BXPC-3 = test: Antiproliferative activity against human BXPC-3 cells assessed as cell growth inhibition by MTT assay; format: functional, cell-based
# HCT-116 [1] = test: Antiproliferative activity against human HCT-116 cells assessed as cell growth inhibition by MTT assay; format: functional, cell-based
# NCI-H460 = test: Antiproliferative activity against human NCI-H460 cells assessed as cell growth inhibition by MTT assay; format: functional, cell-based
# HCT-116 [2] = test: Induction of cell cycle arrest in human HCT-116 cells assessed as increase in accumulation at G2/M phase at 20 nM by propidium iodide staining based flow cytometry relative to control; format: functional
# HCT-116 [3] = test: Induction of cell cycle arrest in human HCT-116 cells assessed as accumulation of cells at G1 phase at 20 nM by propidium iodide staining based flow cytometry analysis (reference value: 37.85 %); format: functional
# HCT-116 [4] = test: Induction of apoptosis in human HCT-116 cells assessed as early apoptotic cells at 10 nM by Annexin-V-FITC and PI staining based flow cytometry (reference value: 3.20 %); format: functional
# [5] = target: T1, Tubulin beta (Homo sapiens) (UniProt P68371+Q9H4B7+Q13509+P04350+Q3ZCM7+P07437+Q13885+Q9BVA1+Q9BUF5+A6NNZ2); test: Induction of beta-tubulin depolymerization in human HCT-116 cells assessed as disruption of microtubule network by measuring abnormality in formation of spindle bodies at 10 nM measured after 24 hrs by DAPI staining based immunofluorescence assay; format: cell-based
# [6] = target: T1, Tubulin beta (Homo sapiens); test: Induction of beta-tubulin depolymerization in human HCT-116 cells assessed as microtubule disruption at 10 nM incubated for 24 hrs by DAPI staining based immunofluorescence assay relative to control; format: cell-based
# HCT-116 [7] = test: Induction of apoptosis in human HCT-116 cells assessed as increase in late apoptosis cells at 20 nM by Annexin-V-FITC and PI staining based flow cytometry analysis relative to control; format: functional
# HCT-116 [8] = test: Induction of cell cycle arrest in human HCT-116 cells assessed as accumulation of cells at S phase at 5 nM by propidium iodide staining based flow cytometry analysis (reference value: 39.4 %); format: functional
# HCT-116 [9] = test: Induction of cell cycle arrest in human HCT-116 cells assessed as accumulation of cells at S phase at 20 nM by propidium iodide staining based flow cytometry analysis (reference value: 39.4 %); format: functional
# HCT-116 [10] = test: Induction of apoptosis in human HCT-116 cells assessed as late apoptotic cells at 10 nM by Annexin-V-FITC and PI based flow cytometry (reference value: 1.75 %); format: functional
# HCT-116 [11] = test: Induction of apoptosis in human HCT-116 cells assessed as increase in early apoptosis cells at 20 nM by Annexin-V-FITC and PI staining based flow cytometry analysis relative to control; format: functional
# HCT-116 [12] = test: Induction of cell cycle arrest in human HCT-116 cells assessed as accumulation of cells at G1 phase at 10 nM by propidium iodide staining based flow cytometry analysis (reference value: 37.85 %); format: functional
# HCT-116 [13] = test: Induction of cell cycle arrest in human HCT-116 cells assessed as increase in accumulation at G2/M phase at 5 nM by propidium iodide staining based flow cytometry relative to control; format: functional
# HCT-116 [14] = test: Induction of cell cycle arrest in human HCT-116 cells assessed as accumulation of cells at G1 phase at 5 nM by propidium iodide staining based flow cytometry analysis (reference value: 37.85 %); format: functional
# [15] = Induction of apoptosis in human HCT-116 cells assessed as early apoptotic cells at 5 nM by Annexin-V-FITC and PI staining based flow cytometry (reference value: 3.20 %); format: functional
# HCT-116 [16] = test: Induction of cell cycle arrest in human HCT-116 cells assessed as accumulation of cells at S phase at 10 nM by propidium iodide staining based flow cytometry analysis (reference value: 39.4 %); format: functional
# HCT-116 [17] = test: Induction of cell cycle arrest in human HCT-116 cells assessed as increase in accumulation at G2/M phase by propidium iodide staining based flow cytometry; format: functional; settings: dose 5-20 nM
# HCT-116 [18] = test: Induction of cell cycle arrest in human HCT-116 cells assessed as increase in accumulation at G2/M phase at 10 nM by propidium iodide staining based flow cytometry relative to control; format: functional
# HCT-116 [19] = test: Induction of apoptosis in human HCT-116 cells assessed as late apoptotic cells at 5 nM by Annexin-V-FITC and PI staining based flow cytometry (reference value: 1.75 %); format: functional
Compound,pIC50 (BXPC-3),pIC50 (HCT-116 [1]),pIC50 (NCI-H460),also measured
Cc1ccc(F)cc1C(=O)Nc1cccc(/C=c2\[nH]c(=O)/c(=C/c3nc[nH]c3C(C)(C)C)[nH]c2=O)c1,5.80,6.44,5.88,
CC(C)(C)c1[nH]cnc1/C=c1\[nH]c(=O)/c(=C/c2cccc(NC(=O)c3ccc(F)cc3)c2)[nH]c1=O,6.23,6.91,6.57,
CC(C)(C)c1[nH]cnc1/C=c1\[nH]c(=O)/c(=C/c2cccc(NC(=O)c3cc4ccccc4[nH]3)c2)[nH]c1=O,5.75,5.58,< 5.30,
CC(C)(C)c1[nH]cnc1/C=c1\[nH]c(=O)/c(=C/c2cccc3[nH]ccc23)[nH]c1=O,7.78,8.14,7.68,fold change (FC) (HCT-116 [2]): 2.7; Activity (HCT-116 [3]): 5.69%; Activity (HCT-116 [4]): 6.15%; Activity [5]: Active; Activity [6]: 77%; fold change (FC) (HCT-116 [7]): 3.9; Activity (HCT-116 [8]): 41.45%; Activity (HCT-116 [9]): 41.7%; Activity (HCT-116 [10]): 2.55%; fold change (FC) (HCT-116 [11]): 6.4; Activity (HCT-116 [12]): 32.3%; fold change (FC) (HCT-116 [13]): 1.1; Activity (HCT-116 [14]): 33.6%; Activity [15]: 4.9%; Activity (HCT-116 [16]): 37.05%; Activity (HCT-116 [17]): Dose-Dependent Effect; fold change (FC) (HCT-116 [18]): 1.4; Activity (HCT-116 [19]): 2%
CC(C)(C)c1[nH]cnc1/C=c1\[nH]c(=O)/c(=C/c2cccc(N)c2)[nH]c1=O,7.10,7.82,6.78,
CC(C)(C)c1[nH]cnc1/C=c1\[nH]c(=O)/c(=C/c2c[nH]c3ccccc23)[nH]c1=O,7.86,8.19,7.08,
CC(C)(C)c1[nH]cnc1/C=c1\[nH]c(=O)/c(=C/c2cccc(NC(=O)c3cccc(C(=O)c4ccccc4)c3)c2)[nH]c1=O,5.35,< 5.30,< 5.30,
Cc1ccc(C(=O)Nc2cccc(/C=c3\[nH]c(=O)/c(=C/c4nc[nH]c4C(C)(C)C)[nH]c3=O)c2)c(C)c1,5.59,6.30,5.89,
CC(C)C(=O)Nc1cccc(/C=c2\[nH]c(=O)/c(=C/c3nc[nH]c3C(C)(C)C)[nH]c2=O)c1,5.84,6.22,6.01,
CC(C)(C)c1[nH]cnc1/C=c1\[nH]c(=O)/c(=C/c2cccc3cc[nH]c23)[nH]c1=O,8.02,6.41,6.54,
CC(C)(C)c1[nH]cnc1/C=c1\[nH]c(=O)/c(=C/c2cccc(NC(=O)C3CCCCC3)c2)[nH]c1=O,5.99,5.88,6.21,
CC(C)(C)c1[nH]cnc1/C=c1\[nH]c(=O)/c(=C/c2cccc(NC(=O)C3CCCC3)c2)[nH]c1=O,5.50,6.19,6.13,
CC(C)(C)c1[nH]cnc1/C=c1\[nH]c(=O)/c(=C/c2ccc3[nH]ccc3c2)[nH]c1=O,8.17,8.23,6.65,
CCC(=O)Nc1cccc(/C=c2\[nH]c(=O)/c(=C/c3nc[nH]c3C(C)(C)C)[nH]c2=O)c1,6.22,6.61,5.64,
CC(C)(C)c1[nH]cnc1/C=c1\[nH]c(=O)/c(=C/c2cccc(NC(=O)Cc3ccccc3)c2)[nH]c1=O,5.77,6.32,5.96,
CC(C)(C)C(=O)Nc1cccc(/C=c2\[nH]c(=O)/c(=C/c3nc[nH]c3C(C)(C)C)[nH]c2=O)c1,5.72,5.54,5.50,
COc1ccc(C(=O)Nc2cccc(/C=c3\[nH]c(=O)/c(=C/c4nc[nH]c4C(C)(C)C)[nH]c3=O)c2)cc1,5.82,5.98,5.93,
CC(=O)Nc1cccc(/C=c2\[nH]c(=O)/c(=C/c3nc[nH]c3C(C)(C)C)[nH]c2=O)c1,6.27,6.62,6.18,
CC(C)(C)c1[nH]cnc1/C=c1\[nH]c(=O)/c(=C/c2cccc(NC(=O)CN)c2)[nH]c1=O,6.56,6.67,6.07,
CC(C)(C)c1[nH]cnc1/C=c1\[nH]c(=O)/c(=C/c2cccc(NC(=O)c3ccccc3)c2)[nH]c1=O,6.40,7.32,6.03,
CC(C)(C)c1[nH]cnc1/C=c1\[nH]c(=O)/c(=C/c2cccc(NC(=O)c3ccccn3)c2)[nH]c1=O,6.28,6.65,5.41,
CC(C)(C)c1[nH]cnc1/C=c1\[nH]c(=O)/c(=C/c2cccc(NC(=O)C3CCC3)c2)[nH]c1=O,6.23,6.05,5.83,
CC(C)(C)c1[nH]cnc1/C=c1\[nH]c(=O)/c(=C/c2cccc(NC(=O)c3cccnc3)c2)[nH]c1=O,5.80,5.97,5.31,
CC(C)(C)c1[nH]cnc1/C=c1\[nH]c(=O)/c(=C/c2cc3ccccc3[nH]2)[nH]c1=O,5.56,5.48,5.86,
CC(C)(C)c1[nH]cnc1/C=c1\[nH]c(=O)/c(=C/c2ccc3cc[nH]c3c2)[nH]c1=O,5.42,5.54,5.74,
CC(C)(C)c1[nH]cnc1/C=c1\[nH]c(=O)/c(=C/c2cccc(NC(=O)C3CCCN3)c2)[nH]c1=O (configuration not stated),7.64,7.14,6.52,
CC(C)[C@H](CN)C(=O)Nc1cccc(/C=c2\[nH]c(=O)/c(=C/c3nc[nH]c3C(C)(C)C)[nH]c2=O)c1 (stereo in doubt),7.50,7.50,5.84,
CC(C)(C)c1[nH]cnc1/C=c1\[nH]c(=O)/c(=C/c2ccccc2)[nH]c1=O [PLINABULIN],7.74,8.06,7.51,Activity [5]: Active; Activity [6]: 67%
CC(C)(C)c1[nH]cnc1/C=c1\[nH]c(=O)/c(=C/c2cccc(NC(=O)C3CC3)c2)[nH]c1=O,5.80,6.14,5.63,

# Reference: ChEMBL document CHEMBL5365396, “Design, synthesis and anti-tumor evaluation of plinabulin derivatives as potential agents targeting β-tubulin” (Bioorg Med Chem Lett, 2023)
